Experimental data published in patent US9931410B2, “Nanoparticles for targeted delivery of multiple therapeutic agents and methods of use” (priority 2012, dated 2018).

Columns and labels:
[1] = Drug release from nanoparticles over time in phosphate buffered saline; assay type: physicochemical; conditions: PLGA-PEG-LIG nanoparticles, irinotecan to cisplatin ratio 2:1, phosphate buffered saline
Description: FIG. 8 is a graph showing the percent of irinotecan and platinum release from PLGA-PEG-LIG nanoparticles over time in phosphate buffered saline.
Next, the amount of cisplatin and irinotecan encapsulated in the nanoparticles as well their encapsulation efficiency (EE) was determined (FIG. 7). As expected, cisplatin was encapsulated with very high efficiency (>80%) due to the hydrophobic-hydrophobic interaction PLGA and PLA. […] This might be due to hydrophilic-hydrophilic interactions of the platinum prodrug and irinotecan. […] The percent drug release of irinotecan and platinum of these nanoparticles over time was also assessed. Irinotecan was released from these nanoparticles at a faster rate compared to the release of the Pt-containing chemotherapeutic agent (FIG. 8).

[2] = Drug loading and encapsulation efficiency (AAS for platinum, spectrophotometry for irinotecan); assay type: physicochemical
Description: Particle sizing was performed using dynamic light scattering (DLS) with a Zetasizer Nano ZS instrument (Malvern Instruments Ltd., U.K.). For each measurement, 100 μL or more of the sample was loaded in a disposable low-volume cuvette. Transmission electron microscopy (TEM) experiments were carried out on a JEOL 2011 instrument at an acceleration voltage of 200 kV. The TEM sample was prepared by depositing 10 μL of the nanoparticle suspension (1.0 mg/mL) onto a 300-mesh carbon-coated copper grid. Samples were blotted away after 30 minutes incubation and the grids were negatively stained for 20 minutes at room temperature with a sterile-filtered 1% (w/v) uranyl acetate aqueous solution. Drug loading and encapsulation efficiency (EE) were determined by quantifying the amount of drug in the nanoparticles. Drug loading is defined as the mass fraction of the drug in the nanoparticles, whereas EE is the fraction of initial drug that is encapsulated by the nanoparticles. After synthesis, nanoparticles were dissolved in a solution 50/50 acetonitrile/water and vortexed for several hours to induce nanoparticle dissociation. The amount of platinum inside the nanoparticles was detected using Atomic Absorption Spectroscopy (AAS), from which the load of cisplatin was calculated. Irinotecan was detected using spectrophotometry on a TECAN 1000 plate reader at a wavelength of 385 nm. A calibration curve with known concentrations of irinotecan was prepared, and the amount of irinotecan encapsulated in the nanoparticles was calculated using the calibration curve.

[3] = after self-assembly with PLGA-PEG
[4] = mixed with both PLGA-PEG and PLA-cisplatin

SMILES	rate of drug release from nanoparticles compared to the Pt-containing agent [1]	drug loading of irinotecan [2, 3] [%]	encapsulation efficiency (EE) of irinotecan [2, 3] [%]	drug loading of irinotecan [2, 4] [%]	encapsulation efficiency (EE) of irinotecan [2, 4] [%]	encapsulation efficiency of cisplatin ([2]; cisplatin as PLA-cisplatin in nanoparticles) [%]
CCc1c2c(nc3ccc(OC(=O)N4CCC(N5CCCCC5)CC4)cc13)-c1cc3c(c(=O)n1C2)COC(=O)[C@]3(O)CC [Irinotecan, irinotecan]	faster rate	0.5	10	2.2	44	
N.N.[Cl][Pt][Cl] [cisplatin]						> 80
